# Measured values taken from patent US11690810B2, “Combination treatment of bacterial infection” (The Chinese University of Hong Kong, priority 2018, dated 2023).
# Read-outs that look alike come from different tables or passages of the source.
# Key:
# [1] = tested on: Panton-Valentine leukocidin positive CA-MRSA strain ST30; type: in vivo, Balb/c mice; details: ST30; used alone at 60 and 120 mg/kg
# [2] = tested on: Human Umbilical Vein Endothelial Cells (HUVEC); assay: XTT cytotoxicity testing; details: 2-64 μg/ml, vs drug free control
# clinical MRSA ST239 = assay: Mouse pneumonia model, ST239 (neutropenic mice); type: in vivo, Balb/c mice; details: ST239; 48 h; 1 also died in control
# MRSA SA-ST239 = assay: MIC and checkerboard (FIC) assay
# [3] = tested on: NorA overexpressed S. aureus; details: ECG at 20 μg/ml; norfloxacin-resistant S. aureus overexpressing NorA (16); cited from earlier work
# HA MRSA W234 = assay: MIC and checkerboard (FIC) assay; details: for FIC / MIC combine: ECG with Kur
# CA MRSA W101 = assay: MIC and checkerboard (FIC) assay; details: for FIC / MIC combine: ECG with Kur
# [4] = tested on: cytokines production of human PBMC stimulated with PGN or SEB; type: cell-based
# Solubility = details: saline or isotonic
# [5] = tested on: S. aureus SA-APH2″-AAC6′ (APH2), resistant to gentamicin; assay: MIC and checkerboard (FIC) assay
# [6] = tested on: S. aureus SA-RN4220-pUL5054 (RN4220); assay: MIC and checkerboard (FIC) assay
# [7] = tested on: S. aureus SA-APH3′ (APH3), resistant to kanamycin; assay: MIC and checkerboard (FIC) assay
# HA MRSA W231 = details: ECG+Kur+Van
# [8] = tested on: internalization of MRSA strain JE-2 by HaCat keratinocytes; assay: Internalization of S. aureus by HaCaT keratinocytes; type: cell-based, Staphylococcus aureus
# [9] = tested on: S. aureus SA-1199B (NorA efflux pump overexpressed); assay: MIC and checkerboard (FIC) assay; details: for FIC / MIC combine: 1199B; for MIC: read-out: MIC alone, 1199B
# [10] = tested on: Human Mammary Epithelial Cell (HMEC); assay: XTT cytotoxicity testing; type: cell-based; details: 2-64 μg/ml, vs drug free control
# Description: The plates were maintained in a 37° C. incubator.
# CA MRSA W114 = assay: MIC and checkerboard (FIC) assay; details: for FIC / MIC combine: ECG with Kur
# [11] = tested on: adherence of MRSA strain JE-2 to fibrinogen; assay: Fibrinogen-binding adherence assay (crystal violet); type: cell-based, Staphylococcus aureus; details: varying concentrations
# [12] = tested on: adherence of MRSA strain JE-2 to HaCat keratinocytes; assay: Bacterial adherence to HaCaT keratinocytes; type: cell-based, Staphylococcus aureus
# [13] = tested on: bacterial aggregation of MRSA JE-2; assay: Aggregation assay of MRSA JE-2; type: cell-based, Staphylococcus aureus; details: JE-2; varying concentrations
# HA MRSA W232 = assay: MIC and checkerboard (FIC) assay; details: for FIC / MIC combine / MIC alone: W232
# [14] = tested on: S. aureus SA-ANT4′ (ANT4), resistant to fusidic acid; assay: MIC and checkerboard (FIC) assay; details: for MIC alone: ANT4 (fusidic acid resistant); for FIC / MIC combine: ANT4
# [15] = tested on: cytokines production of human macrophages stimulated with PGN or SEB; type: cell-based
# [16] = ST239, ECG with WQD-169 (Kuraridin)
# [17] = Staphylococcus aureus, MRSA, read-out: MIC alone
# [18] = APH2″-AAC6′, ECG with WQD-169 (Kuraridin)
# [19] = Staphylococcus aureus, read-out: MIC 99.9
# [20] = Staphylococcus aureus, read-out: MIC alone
structure (smiles),measurement,setting,value
"O=C(O[C@@H]1Cc2c(O)cc(O)cc2O[C@@H]1c1ccc(O)c(O)c1)c1cc(O)c(O)c(O)c1 [ECG, epicatechin gallate]",log CFU counts and survival rates,[1],could not reduce the log CFU counts or improve the survival rates
same,Cellular toxicity (XTT assay),[2],not toxic
same,mice died,clinical MRSA ST239,1 mouse
same,FIC,"MRSA SA-ST239; ST239, ECG with Kur",0.004
same,MIC combine,"MRSA SA-ST239; ST239, ECG with Kur",2 µg/mL
same,FIC,"MRSA SA-ST239; ST239, ECG with WQD-164",0.001
same,MIC combine,"MRSA SA-ST239; ST239, ECG with WQD-164",2 µg/mL
same,FIC,"MRSA SA-ST239; ST239, ECG with WQD-165",0.0009
same,MIC combine,"MRSA SA-ST239; ST239, ECG with WQD-165",0.5 µg/mL
same,FIC,MRSA SA-ST239; [16],0.007
same,MIC combine,MRSA SA-ST239; [16],4 µg/mL
same,FIC,"MRSA SA-ST239; ST239, ECG with WQD-175",0.0009
same,MIC combine,"MRSA SA-ST239; ST239, ECG with WQD-175",0.5 µg/mL
same,FIC,"MRSA SA-ST239; ST239, ECG+Kur+Van",0.0004
same,MIC combine,"MRSA SA-ST239; ST239, ECG+Kur+Van",0.25 µg/mL
same,MIC alone,"MRSA SA-ST239; ST239, Table 5",512 µg/mL
same,MIC90,"MRSA SA-ST239; Staphylococcus aureus, MRSA",16 µg/mL
same,MIC99,"MRSA SA-ST239; Staphylococcus aureus, MRSA, read-out: MIC 99.9",> 512 µg/mL
same,MIC,MRSA SA-ST239; [17],512 µg/mL
same,MIC alone,"MRSA SA-ST239; Strain ST239, Table 9",512 µg/mL
same,potentiation of the activity of norfloxacin,[3],four-fold potentiation
same,MIC,HA MRSA W234; [17],512 µg/mL
same,FIC,HA MRSA W234; W234,0.002
same,MIC combine,HA MRSA W234; W234,1 µg/mL
same,MIC,CA MRSA W101; [17],512 µg/mL
same,FIC,CA MRSA W101; W101,0.002
same,MIC combine,CA MRSA W101; W101,1 µg/mL
same,IL-10 and IL-12 production,[4],mildly suppressed
same,TNF-α production,[4],no significant effects
same,solubility,Solubility,20 mg/mL
same,MIC alone,[5]; APH2 (gentamicin resistant),512 µg/mL
same,FIC,"[5]; APH2, ECG+Kur+Gen",0.0005
same,MIC combine,"[5]; APH2, ECG+Kur+Gen",0.25 µg/mL
same,FIC,"[5]; APH2, ECG+Kur, no Gen",0.0009
same,MIC combine,"[5]; APH2, ECG+Kur, no Gen",0.5 µg/mL
same,FIC,"[5]; APH2, Kuraridin with ECG",0.0009
same,MIC combine,"[5]; APH2, Kuraridin with ECG",0.5 µg/mL
same,FIC,"[5]; APH2″-AAC6′, ECG with WQD-164",0.001
same,MIC combine,"[5]; APH2″-AAC6′, ECG with WQD-164",1 µg/mL
same,FIC,"[5]; APH2″-AAC6′, ECG with WQD-165",0.0009
same,MIC combine,"[5]; APH2″-AAC6′, ECG with WQD-165",0.5 µg/mL
same,FIC,[5]; [18],0.007
same,MIC combine,[5]; [18],4 µg/mL
same,FIC,"[5]; APH2″-AAC6′, ECG with WQD-175",0.0009
same,MIC combine,"[5]; APH2″-AAC6′, ECG with WQD-175",0.5 µg/mL
same,MIC90,[5]; Staphylococcus aureus,8 µg/mL
same,MIC99,[5]; [19],> 512 µg/mL
same,MIC,[5]; [20],512 µg/mL
same,MIC alone,"[5]; Strain APH2″-AAC6′, Table 9",512 µg/mL
same,FIC,"[6]; RN4220, Kuraridin with ECG",0.01
same,MIC combine,"[6]; RN4220, Kuraridin with ECG",8 µg/mL
same,MIC90,[6]; Staphylococcus aureus,8 µg/mL
same,MIC99,[6]; [19],> 512 µg/mL
same,MIC,[6]; [20],512 µg/mL
same,FIC,"[7]; APH3, Kuraridin with ECG",0.0009
same,MIC combine,"[7]; APH3, Kuraridin with ECG",0.5 µg/mL
same,MIC90,[7]; Staphylococcus aureus,4 µg/mL
same,MIC99,[7]; [19],> 512 µg/mL
same,MIC,[7]; [20],512 µg/mL
same,FIC,HA MRSA W231,0.0004
same,MIC combine,HA MRSA W231,0.25 µg/mL
same,percentage of internalized bacteria by HaCaT cells,[8]; ECG 4 μg/ml,62.2±2.7%
same,percentage of internalized bacteria by HaCaT cells,[8]; ECG 8 μg/ml,62.8±10.5%
same,percentage of internalized bacteria by HaCaT cells,[8]; ECG 16 μg/ml,53.7±6.3%
same,percentage of internalized bacteria by HaCaT cells,[8]; ECG 32 μg/ml,42.2±8.9%
same,percentage of internalized bacteria by HaCaT cells,[8]; ECG 64 μg/ml,34.7±4.5%
same,FIC,[9]; Baicalein with ECG,0.25
same,MIC combine,[9]; Baicalein with ECG,8 µg/mL
same,FIC,[9]; Kuraridin with ECG,0.06
same,MIC combine,[9]; Kuraridin with ECG,32 µg/mL
same,MIC90,[9]; Staphylococcus aureus,8 µg/mL
same,MIC99,[9]; [19],> 512 µg/mL
same,MIC,"[9]; Staphylococcus aureus, Baicalein and ECG section",32 µg/mL
same,MIC,"[9]; Staphylococcus aureus, Kuraridin and ECG section",512 µg/mL
same,Cellular toxicity (XTT assay),[10],not toxic
same,MIC,CA MRSA W114; [17],512 µg/mL
same,FIC,CA MRSA W114; W114,0.002
same,MIC combine,CA MRSA W114; W114,1 µg/mL
same,fibrinogen-binding adherence,[11],dose-dependent reduction of adherence
same,decrease in the adherence of the WT strain to HaCaT cells,[12]; 64 μg/ml of ECG,1.4 fold
same,percentage of adherence of the bacteria to HaCaT cells,[12]; ECG 4 μg/ml,73.0±4.1%
same,percentage of adherence of the bacteria to HaCaT cells,[12]; ECG 8 μg/ml,75.4±11.0%
same,percentage of adherence of the bacteria to HaCaT cells,[12]; ECG 16 μg/ml,76.4±7.0%
same,percentage of adherence of the bacteria to HaCaT cells,[12]; ECG 32 μg/ml,58.8±8.5%
same,percentage of adherence of the bacteria to HaCaT cells,[12]; ECG 64 μg/ml,52±6.5%
same,bacterial aggregation,[13],No significant reduction
same,MIC,HA MRSA W232; [17],512 µg/mL
same,FIC,HA MRSA W232; ECG with Kur,0.008
same,MIC combine,HA MRSA W232; ECG with Kur,4 µg/mL
same,FIC,HA MRSA W232; ECG+Kur+Van,0.03
same,MIC combine,HA MRSA W232; ECG+Kur+Van,8 µg/mL
same,MIC alone,HA MRSA W232; Table 5,512 µg/mL
same,MIC alone,[14],512 µg/mL
same,FIC,[14]; ECG+Kur+Fus,0.0007
same,MIC combine,[14]; ECG+Kur+Fus,4 µg/mL
same,FIC,"[14]; ECG+Kur, no Fus",0.03
same,MIC combine,"[14]; ECG+Kur, no Fus",16 µg/mL
same,FIC,[14]; Kuraridin with ECG,0.03
same,MIC combine,[14]; Kuraridin with ECG,16 µg/mL
same,MIC90,[14]; Staphylococcus aureus,8 µg/mL
same,MIC99,[14]; [19],> 512 µg/mL
same,MIC,[14]; [20],512 µg/mL
same,IL-12 production,[15],could suppress only IL-12
C=C(C)[C@H](CC=C(C)C)Cc1c(O)cc(OC)c(C(=O)/C=C/c2ccc(O)cc2O)c1O [Kuraridin],MIC alone,MRSA SA-ST239; ST239,8 µg/mL
same,FIC,"MRSA SA-ST239; ST239, ECG with Kur",0.5
same,MIC combine,"MRSA SA-ST239; ST239, ECG with Kur",4 µg/mL
same,FIC,"MRSA SA-ST239; ST239, ECG+Kur+Van",0.125
same,MIC combine,"MRSA SA-ST239; ST239, ECG+Kur+Van",1 µg/mL
same,MIC alone,"MRSA SA-ST239; ST239, Table 5",8 µg/mL
same,MIC alone,HA MRSA W234; W234,8 µg/mL
same,FIC,HA MRSA W234; W234,0.5
same,MIC combine,HA MRSA W234; W234,4 µg/mL
same,MIC alone,CA MRSA W101; W101,8 µg/mL
same,FIC,CA MRSA W101; W101,0.5
same,MIC combine,CA MRSA W101; W101,4 µg/mL
same,MIC alone,[5]; APH2 (gentamicin resistant),8 µg/mL
same,FIC,"[5]; APH2, ECG+Kur+Gen",0.25
same,MIC combine,"[5]; APH2, ECG+Kur+Gen",2 µg/mL
same,FIC,"[5]; APH2, ECG+Kur, no Gen",0.25
same,MIC combine,"[5]; APH2, ECG+Kur, no Gen",2 µg/mL
same,MIC alone,CA MRSA W114; W114,8 µg/mL
same,FIC,CA MRSA W114; W114,0.5
same,MIC combine,CA MRSA W114; W114,4 µg/mL
same,MIC alone,HA MRSA W232,8 µg/mL
same,FIC,HA MRSA W232; ECG with Kur,0.25
same,MIC combine,HA MRSA W232; ECG with Kur,2 µg/mL
same,FIC,HA MRSA W232; ECG+Kur+Van,0.25
same,MIC combine,HA MRSA W232; ECG+Kur+Van,2 µg/mL
same,MIC alone,HA MRSA W232; Table 5,8 µg/mL
same,MIC alone,[14],8 µg/mL
same,FIC,[14]; ECG+Kur+Fus,0.25
same,MIC combine,[14]; ECG+Kur+Fus,2 µg/mL
same,FIC,"[14]; ECG+Kur, no Fus",0.25
same,MIC combine,"[14]; ECG+Kur, no Fus",2 µg/mL
